In patent US7253197B2, “Aminothiazole derivatives” (Hoffmann-La Roche Inc., priority 2002, dated 2007):

What follows are compounds tested against T1, recombinant mouse NPY5-receptor (mNPY5) (Mus musculus, UniProt O70342) (assay: Radioligand competition binding). Conditions: HEK293 membranes expressing mNPY5; displacement of 100 pM [125I]labeled PYY; 1 h at 22° C.; read-out: NPY5-R (mouse) IC50.
T1 construct: The full-length cDNA encoding the mouse NPY5 (mNPY5) receptor was amplified from mouse brain cDNA; expressed in transfected cells; membrane preparation
T1 sequence (O70342 1-466): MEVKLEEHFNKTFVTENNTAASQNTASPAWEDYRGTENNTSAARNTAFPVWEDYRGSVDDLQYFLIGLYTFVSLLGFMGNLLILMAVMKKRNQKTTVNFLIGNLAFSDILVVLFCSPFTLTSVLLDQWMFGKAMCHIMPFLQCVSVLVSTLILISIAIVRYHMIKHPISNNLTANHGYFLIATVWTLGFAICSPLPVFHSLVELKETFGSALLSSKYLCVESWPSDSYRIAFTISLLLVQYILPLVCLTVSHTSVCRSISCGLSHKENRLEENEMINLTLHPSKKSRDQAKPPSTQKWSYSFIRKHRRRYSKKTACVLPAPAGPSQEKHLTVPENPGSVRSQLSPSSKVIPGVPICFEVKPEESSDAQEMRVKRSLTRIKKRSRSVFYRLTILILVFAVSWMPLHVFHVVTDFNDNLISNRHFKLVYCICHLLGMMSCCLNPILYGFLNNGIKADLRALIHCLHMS
Excerpt: The full-length cDNA encoding the mouse NPY5 (mNPY5) receptor was amplified from mouse brain cDNA using specific primers, designed based on the published sequence, and Pfu DNA-Polymerase. The amplification product was subcloned into the mammalian expression vector pcDNA3 using Eco RI and XhoI restriction sites. Positive clones were sequenced and one clone, encoding the published sequence was selected for generation of stable cell clones. The sequence is published in Borowsky B., et al., “Molecular Biology and Pharmacology of Multiple NPY Y5 Receptor Species Homologs”, Regul. Pept. 75-76:45-53 (1998).
Human embryonic kidney 293 (HEK293) cells were transfected with 10 μg mNPY5 DNA using the lipofectamine reagent. Two days after transfection, geneticin selection (1 mg/ml) was initiated and several stable clones were isolated. One clone was further used for pharmacological characterization.
Human embryonic kidney 293 cells (HEK293), expressing recombinant mouse NPY5-receptor (mNPY5) were broken by three freeze/thawing cycles in hypotonic Tris buffer (5 mM, pH 7.4, 1 mM MgCl2), homogenized and centrifuged at 72,000×g for 15 min. The pellet was washed twice with 75 mM Tris buffer, pH 7.4, containing 25 mM MgCl2 and 250 mM sucrose, 0.1 mM phenylmethylsulfonylfluoride and 0.1 mM 1,10-pheneanthrolin, resuspended in the same buffer and stored in aliquots at −80° C. Protein was determined according to the method of Lowry using bovine serum albumine (BSA) as a standard. […]

IC50 [nM] | Compound
66 | N#Cc1cccc(Nc2ncc(C(=O)c3ccc(F)cc3)s2)c1 [Example 8, 3-[5-(4-Fluoro-benzoyl)-thiazol-2-ylamino]-benzonitrile]
8 | O=C(c1cnc(Nc2cccc(C(F)(F)F)c2)s1)c1ccccc1Cl [Example 29, (2-Chloro-phenyl)-[2-(3-trifluoromethyl-phenylamino)-thiazol-5-yl]-methanone]
86 | CC(=O)c1cccc(Nc2ncc(C(=O)c3ccccc3C)s2)c1 [Example 61, 1-{3-[5-(2-Methyl-benzoyl)-thiazol-2-ylamino]-phenyl}-ethanone]
